# Experimental data from article PMC7178866, “In vitro inhibitory effects of ganoderic acid A on human liver cytochrome P450 enzymes” (Pharmaceutical Biology, 2020).
# Experiments:
# CYP2C9 = tested on: T1, CYP2C9; test: Inhibition of CYP2C9 (diclofenac 4′-hydroxylation) in pooled human liver microsomes; type: in vitro ADME; conditions: GAA 100 μM; pooled HLM
# T1 construct: from tissue; host or cells: human liver microsomes
# Description: (§1) All incubations were performed in triplicate, and the mean values were utilized. The typical incubation systems contained 100 mM potassium phosphate buffer (pH 7.4), NADPH generating system (1 mM NADP^+, 10 mM glucose-6-phosphate, 1 U/mL of glucose-6-phosphate dehydrogenase, and 4 mM MgCl2), the appropriate concentration of HLMs, a corresponding probe substrate and hispidulin (or positive inhibitor for different probe reactions) in a final volume of 200 μL.
# (§2) The concentration of GAA was 100 μM, and the positive inhibitor concentrations were as follows: 10 μM furafylline for CYP1A2, 1 μM ketoconazole for CYP3A4, 10 μM tranylcypromine for CYP2A6, 50 μM clomethiazole for CYP2E1, 10 μM quinidine for CYP2D6, 10 μM sulfaphenazole for CYP2C9, 50 μM tranylcypromine for CYP2C19, 5 μM montelukast for CYP2C8. Probe substrates, positive inhibitors (except for dextromethorphan and quinidine, which were dissolved in water) and GAA were dissolved in methanol, with a final concentration of 1% (v/v), and 1% neat methanol was added to the incubations without inhibitor. […] The instrument used in this study was Agilent 1260 series instrument with DAD and FLD detector, and the quantitative assay for the corresponding metabolites was performed as previously reported (Lang et al. [2017]; Zhang et al. [2017]). […]
# CYP3A4 [1] = molecular target: T2, CYP3A4 (Homo sapiens, UniProt P08684); test: Time-dependent inhibition study, CYP3A4 in human liver microsomes; type: in vitro ADME
# T2 construct: CYP3A4 catalyzed reactions (testosterone 6β-hydroxylation) in pooled HLM; from tissue; host or cells: pooled human liver microsomes
# Description: (§3) To determine whether GAA could inhibit the activity of CYP3A4, 2D6, and 2E1 in a time-dependent manner, GAA (20 μM) was pre-incubated with HLMs (1 mg/mL) in the presence of an NADPH-generating system for 30 min at 37 °C. After incubation, an aliquot (20 μL) was transferred to another incubation tube (final volume 200 μL) containing an NADPH-generating system and probe substrates whose final concentrations were approximate to Km. Then, further incubations were performed to measure the residual activity. After being incubated for 10 and 30 min, the reactions were terminated by adding a 100 μL acetonitrile internal standard mix and then placed on ice; the corresponding metabolites were determined by HPLC.
# To determine the KI and Kinact values for the inactivation of CYP3A4, the incubations were conducted using higher probe substrate concentrations (approximately 4-fold Km values) and various concentrations of GAA (0–50 μM) after different preincubation times (0–30 min), with a two-step incubation scheme, as described above.
# CYP2D6 [2] = molecular target: T3, CYP2D6 (Homo sapiens, UniProt P10635); test: Time-dependent inhibition study, CYP2D6 in human liver microsomes; type: in vitro ADME; conditions: GAA 20 μM pre-incubated with HLMs and NADPH for 30 min
# T3 construct: from tissue; host or cells: pooled human liver microsomes
# Description: as §3
# CYP2A6 = tested on: T4, CYP2A6; test: Inhibition of CYP2A6 (coumarin 7-hydroxylation) in pooled human liver microsomes; type: in vitro ADME; conditions: GAA 100 μM; pooled HLM
# T4 construct: from tissue; host or cells: human liver microsomes
# Description: as §1, §2
# CYP2C19 = tested on: T5, CYP2C19; test: Inhibition of CYP2C19 (S-mephenytoin 4-hydroxylation) in pooled human liver microsomes; type: in vitro ADME; conditions: GAA 100 μM; pooled HLM
# T5 construct: from tissue; host or cells: human liver microsomes
# Description: as §1, §2
# [3] = parameters: method as in Teekachunhatean et al. [2012]; Tseng et al. [2014]; conditions: after oral administration of 3000 mg Lingzhi; ref Teekachunhatean et al. [2012]; Tseng et al. [2014]; cited from earlier work
# CYP2E1 [4] = molecular target: T6, CYP2E1 (Homo sapiens, UniProt P05181); test: Time-dependent inhibition study, CYP2E1 in human liver microsomes; type: in vitro ADME; conditions: GAA 20 μM pre-incubated with HLMs and NADPH for 30 min
# T6 construct: CYP2E1 catalyzed reactions (chlorzoxazone 6-hydroxylation) in pooled HLM; from tissue; host or cells: pooled human liver microsomes
# Description: as §3
# CYP2D6 [5] = molecular target: T3, CYP2D6; test: Inhibition of CYP2D6 (dextromethorphan O-demethylation) in pooled human liver microsomes; type: in vitro ADME
# Description: as §1
# (§4) The concentration of GAA was 100 μM, and the positive inhibitor concentrations were as follows: 10 μM furafylline for CYP1A2, 1 μM ketoconazole for CYP3A4, 10 μM tranylcypromine for CYP2A6, 50 μM clomethiazole for CYP2E1, 10 μM quinidine for CYP2D6, 10 μM sulfaphenazole for CYP2C9, 50 μM tranylcypromine for CYP2C19, 5 μM montelukast for CYP2C8. Probe substrates, positive inhibitors (except for dextromethorphan and quinidine, which were dissolved in water) and GAA were dissolved in methanol, with a final concentration of 1% (v/v), and 1% neat methanol was added to the incubations without inhibitor. There was a 3 min preincubation period (at 37 °C) before the reaction was initiated by adding an NADPH-generating system. The reaction was terminated by adding a 100 μL acetonitrile (10% trichloroacetic acid for CYP2A6) internal standard mix, and the solution was placed on ice. The mixture was centrifuged at 12,000 rpm for 10 min, and an aliquot (50 μL) of supernatant was transferred for HPLC analysis. The instrument used in this study was Agilent 1260 series instrument with DAD and FLD detector, and the quantitative assay for the corresponding metabolites was performed as previously reported (Lang et al. [2017]; Zhang et al. [2017]).
# (§5) GAA (100 μM) was used to initially screen for its direct inhibitory effects towards different human CYP isoforms. […]
# (§6) The enzyme kinetic parameters for the probe reaction were estimated from the best fit line, using least-squares linear regression of the inverse substrate concentration versus the inverse velocity (Lineweaver-Burk plots), and the mean values were used to calculate Vmax and Km. Inhibition data from the experiments that were conducted using multiple compound concentrations were represented by Dixon plots, and inhibition constant (Ki) values were calculated using non-linear regression according to the following equation: v=(VmaxS)/(Km(1+I/Ki)+S), where I is the concentration of the compound, Ki is the inhibition constant, S is the concentration of the substrate, and Km is the substrate concentration at half the maximum velocity (Vmax) of the reaction. The mechanism of the inhibition was assessed using the Lineweaver-Burk plots and the enzyme inhibition models. […]
# CYP2E1 [6] = molecular target: T6, CYP2E1; test: Inhibition of CYP2E1 (chlorzoxazone 6-hydroxylation) in pooled human liver microsomes; type: in vitro ADME
# Description: as §1, §4, §5, §6
# CYP1A2 = tested on: T7, CYP1A2; test: Inhibition of CYP1A2 (phenacetin O-deethylation) in pooled human liver microsomes; type: in vitro ADME; conditions: GAA 100 μM; pooled HLM
# T7 construct: to investigate the effects of GAA on different CYP isoforms in HLM; from tissue; host or cells: human liver microsomes
# Description: as §1, §2
# CYP3A4 [7] = molecular target: T2, CYP3A4; test: Inhibition of CYP3A4 (testosterone 6β-hydroxylation) in pooled human liver microsomes; type: in vitro ADME
# Description: as §1, §4, §5, §6
# CYP2C8 = tested on: T8, CYP2C8; test: Inhibition of CYP2C8 (paclitaxel 6α-hydroxylation) in pooled human liver microsomes; type: in vitro ADME; conditions: GAA 100 μM; pooled HLM
# T8 construct: from tissue; host or cells: human liver microsomes
# Description: as §1, §2
# T3 sequence (P10635 whole entry): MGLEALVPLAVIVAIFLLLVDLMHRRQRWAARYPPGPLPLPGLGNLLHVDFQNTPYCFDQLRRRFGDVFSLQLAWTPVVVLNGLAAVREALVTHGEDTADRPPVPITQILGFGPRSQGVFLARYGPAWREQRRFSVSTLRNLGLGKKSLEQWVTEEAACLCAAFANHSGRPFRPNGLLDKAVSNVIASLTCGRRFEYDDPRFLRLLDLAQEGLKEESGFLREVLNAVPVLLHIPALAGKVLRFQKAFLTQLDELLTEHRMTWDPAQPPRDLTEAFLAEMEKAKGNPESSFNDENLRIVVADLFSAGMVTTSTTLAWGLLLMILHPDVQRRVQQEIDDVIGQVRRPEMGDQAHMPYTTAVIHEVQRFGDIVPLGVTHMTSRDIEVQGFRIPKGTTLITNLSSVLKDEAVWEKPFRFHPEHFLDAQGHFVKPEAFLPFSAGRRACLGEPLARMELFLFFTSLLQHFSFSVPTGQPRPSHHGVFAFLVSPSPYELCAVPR
# T2 sequence (P08684 whole entry): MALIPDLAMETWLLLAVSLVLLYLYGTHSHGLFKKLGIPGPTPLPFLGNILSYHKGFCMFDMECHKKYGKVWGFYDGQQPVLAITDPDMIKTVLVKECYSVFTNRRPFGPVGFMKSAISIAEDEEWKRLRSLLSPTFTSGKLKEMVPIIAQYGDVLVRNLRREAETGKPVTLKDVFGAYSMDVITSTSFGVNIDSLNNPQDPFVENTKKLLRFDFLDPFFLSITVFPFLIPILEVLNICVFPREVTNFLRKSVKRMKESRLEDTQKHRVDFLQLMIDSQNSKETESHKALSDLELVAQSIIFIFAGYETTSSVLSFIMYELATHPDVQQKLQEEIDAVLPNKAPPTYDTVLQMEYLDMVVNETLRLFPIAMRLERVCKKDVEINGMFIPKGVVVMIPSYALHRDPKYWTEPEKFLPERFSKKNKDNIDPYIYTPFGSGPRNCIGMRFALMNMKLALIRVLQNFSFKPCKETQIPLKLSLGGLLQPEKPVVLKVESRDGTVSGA
# T6 sequence (P05181 whole entry): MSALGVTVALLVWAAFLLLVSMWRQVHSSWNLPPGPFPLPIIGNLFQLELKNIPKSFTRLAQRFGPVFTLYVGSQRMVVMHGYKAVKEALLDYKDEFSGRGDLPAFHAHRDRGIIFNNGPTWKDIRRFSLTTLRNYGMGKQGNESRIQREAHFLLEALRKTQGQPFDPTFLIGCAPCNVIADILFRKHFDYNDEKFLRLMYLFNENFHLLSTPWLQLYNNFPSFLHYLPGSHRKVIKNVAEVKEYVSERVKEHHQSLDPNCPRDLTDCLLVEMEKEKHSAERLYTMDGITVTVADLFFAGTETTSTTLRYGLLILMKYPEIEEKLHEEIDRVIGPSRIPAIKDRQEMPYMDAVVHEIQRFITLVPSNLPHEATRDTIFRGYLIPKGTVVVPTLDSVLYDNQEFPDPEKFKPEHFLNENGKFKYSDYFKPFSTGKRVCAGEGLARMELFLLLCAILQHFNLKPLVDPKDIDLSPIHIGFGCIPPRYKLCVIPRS
smiles,measurement,setting,value
"C[C@H](CC(=O)C[C@@H](C)[C@H]1C[C@H](O)[C@@]2(C)C3=C(C(=O)C[C@]12C)[C@@]1(C)CCC(=O)C(C)(C)[C@@H]1C[C@@H]3O)C(=O)O [GAA, Ganoderic acid A]",effect on the activity of CYP2C9,CYP2C9,did not exert effect
same,time dependence of inhibition of CYP3A4,CYP3A4 [1]; GAA 20 μM pre-incubated with HLMs and NADPH for 30 min,time-dependent
same,CYP3A4 inactivated every minute,"CYP3A4 [1]; concluded from the value of Kinact, GAA incubated with HLM",about 4.8%
same,time dependence of inhibition of CYP2D6,CYP2D6 [2],stable with incubation time
same,effect on the activity of CYP2A6,CYP2A6,did not exert effect
same,effect on the activity of CYP2C19,CYP2C19,did not exert effect
same,maximum concentration in plasma of GAA,[3],2.24 to 10.99 ng/mL
same,time dependence of inhibition of CYP2E1,CYP2E1 [4],stable with incubation time
same,IC50,CYP2D6 [5],21.8 µM
same,Ki,CYP2D6 [5],10.1 µM
same,"activity of CYP2D6, % of negative control","CYP2D6 [5]; GAA 100 μM, pooled HLM, dextromethorphan O-demethylation, remaining activity",18.2%
same,inhibition model of CYP2D6,CYP2D6 [5]; Lineweaver-Burk plots,competitively
same,IC50,CYP2E1 [6],28.3 µM
same,Ki,CYP2E1 [6],13.4 µM
same,"activity of CYP2E1, % of negative control","CYP2E1 [6]; GAA 100 μM, pooled HLM, chlorzoxazone 6-hydroxylation, remaining activity",27.7%
same,inhibition model of CYP2E1,CYP2E1 [6]; Lineweaver-Burk plots,competitively
same,effect on the activity of CYP1A2,CYP1A2,did not exert effect
same,IC50,CYP3A4 [7],15 µM
same,Ki,CYP3A4 [7],7.16 µM
same,"activity of CYP3A4, % of negative control","CYP3A4 [7]; GAA 100 μM, pooled HLM, testosterone 6β-hydroxylation, remaining activity",14.6%
same,inhibition model of CYP3A4,CYP3A4 [7]; Lineweaver-Burk plots,non-competitive
same,effect on the activity of CYP2C8,CYP2C8,did not exert effect
